From patent publication US12404285B2, “KRAS G12D proteolysis targeting chimeras” (PAQ Therapeutics Inc., priority 2022, dated 2025)

Target: T1, KRAS (G12D)-HiBit in AsPc-1-KRAS (G12D)-HiBit-KI cell (Homo sapiens, UniProt P01116, G12D)
T1 construct: host or cells: AsPc-1-KRAS (G12D)-HiBit-KI cells (knock-in line)
Assay: G12D HiBit assay
Format: cell-based
Conditions: 24 hours compound treatment, absolute DC50, read-out: Average PHA DC50
Procedure: Day 1. Prepared the culture medium for AsPc-1-KRAS (G12D)-HiBit-KI cell (Pharmaron) using RPMI 1640 medium (Gibco, 11875093) with 10% FBS (Gibco, 10099141C) and 1% Penicillin-Streptomycin Liquid (Solarbio, P1400). Cultivated cells in T-75 flasks in a cell culture incubator (Thermo, Model: 371) at 37° C., 5% CO2. Allowed cells to reach approximately 80% confluence before splitting. Rinsed cultivated cells in T-75 flasks with 5 mL PBS (Solarbio, P1020-500). Aspirated off PBS, added 1.5 mL trypsin (Invitrogen, #25300), and incubated at 37° C. for approximately 5 minutes or until the cells detached. Inactivated trypsin by adding excessive serum containing medium. Harvested the cells from flask into cell culture medium and counted the cell number. Seeded AsPc-1-KRAS (G12D)-HiBit-KI cell into 384-well plate (Corning, 3570) (cell density: 5×10^3 cells/well in 50 μL medium) in RPMI 1640 medium and incubated overnight at 37° C. and 5% CO2.
Day 2. Test compounds were dissolved at 0.3 mM in DMSO (Solarbio, D8371) as stock solution. Transferred 45 μL of stock solution to a 384-well plate (Labcyte, 001-14555). Performed 3-fold, 10-points dilution via transferring 15 μL compound into 30 μL DMSO by using TECAN liquid handler (TECAN, Freedom EVO200). The compound plates were spin at room temperature at 1,000 RPM for 1 minute (Eppendorf, 5810R). Transferred 50 nL of diluted compounds from compound source plate into the cell plate by Echo (Labcyte, 550) to achieve final concentrations of 300 nM, 100 nM, 33.3 nM, 11.1 nM, 3.7 nM, 1.23 nM, 0.41 nM, 0.14 nM, 0.046 nM and 0.015 nM, then mixed the cell plate on a plate shaker (Yoning, WZ-4) for 15 seconds at 900 rpm. After compound treatment for 24 hours, removed the plate from incubators and equilibrated at room temperature for 15 minutes. Prepared the HiBit reagent (Promega, N3040) by mixing 10 mL of Nano-Glo®-HiBiT Lytic Buffer with 200 μL of Nano-Glo®-HiBiT Lytic Substrate and 100 μL of LgBiT Protein. Added 20 μL of HiBit reagent into each well of the cell plate and spun the plates at room temperature at 1,000 RPM for 1 minute. Then shook the plates at 600 RPM at room temperature for 20 minutes using a plate shaker (Yoning, WZ-4), and read the luminescence by EnVision (PerkinElmer, 2105-0020).
The inhibition activity was calculated using the following formula: HiBit-G12D level (%)=100%×[Luminescence(Sample)/Mean of Luminescence (HC)] where HC (high control) is obtained from cells treated with 0.1% DMSO only.
Absolute DC50 was calculated by fitting the curve using GraphPad Prism v8.0.2 (analyis 263): Y=Bottom+(100−Bottom)/(1+10^(Log AbsoluteIC50−X)*HillSlope+log((100−Bottom)/(50−Bottom)−1)))
The data are reported in Table 3, wherein “+++”=DC50 less than 100 nM, “++”=DC50 greater than or equal to 100 nM and less than 300 nM; “+”=DC50 greater than or equal to 300 nM.

T1 sequence (P01116 1-188 isoform P01116-2 G12D): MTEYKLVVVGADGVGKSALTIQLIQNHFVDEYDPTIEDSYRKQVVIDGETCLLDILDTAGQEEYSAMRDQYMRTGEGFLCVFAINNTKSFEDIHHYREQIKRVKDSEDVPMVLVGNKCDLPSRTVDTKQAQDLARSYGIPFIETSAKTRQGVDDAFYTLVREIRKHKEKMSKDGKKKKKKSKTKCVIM

C#Cc1c(F)ccc2cccc(-c3ncc4c(N5CC6CCC(C5)N6)nc(OC[C@@]56CCCN5[C@H](COC(=O)N5CCC(C7CCN(Cc8ccc9c(c8)n(C)c(=O)n9C8CCC(=O)NC8=O)CC7)CC5)CC6)nc4c3F)c12 (stereo partly drawn) [Compound 55, [(3S,8S)-8-[[4-(3,8-Diazabicyclo[3.2.1]octan-3-yl)-7-(8-ethynyl-7-fluoro-1-naphthyl)-8-fluoro-pyrido[4,3-d]pyrimidin-2-yl]oxymethyl]-1,2,3,5,6,7-hexahydropyrrolizin-3-yl]methyl 4-[1-[[1-(2,6-dioxo-3-piperidyl)-3-methyl-2-oxo-benzimidazol-5-yl]methyl]-4-piperidyl]piperidine-1-carboxylate]
DC50: < 100 nM

C#Cc1c(F)ccc2cccc(-c3ncc4c(N5CC6CCC(C5)N6)nc(OC[C@@]56CCCN5[C@H](COC(=O)N5CCC(N7CCN(Cc8ccc9c(c8)n(C)c(=O)n9C8CCC(=O)NC8=O)CC7)CC5)CC6)nc4c3F)c12 (stereo partly drawn) [Compound 56, [(3S,8S)-8-[[4-(3,8-Diazabicyclo[3.2.1]octan-3-yl)-7-(8-ethynyl-7-fluoro-1-naphthyl)-8-fluoro-pyrido[4,3-d]pyrimidin-2-yl]oxymethyl]-1,2,3,5,6,7-hexahydropyrrolizin-3-yl]methyl 4-[4-[[1-(2,6-dioxo-3-piperidyl)-3-methyl-2-oxo-benzimidazol-5-yl]methyl]piperazin-1-yl]piperidine-1-carboxylate]
DC50: < 100 nM

C#Cc1c(F)ccc2cccc(-c3ncc4c(N5CC6CCC(C5)N6)nc(OC[C@@]56CCCN5[C@H](COC(=O)N5CCC(OCCCCCCc7cccc8c7n(C)c(=O)n8C7CCC(=O)NC7=O)CC5)CC6)nc4c3F)c12 (stereo partly drawn) [Compound 58, [(3S,8S)-8-[[4-(3,8-Diazabicyclo[3.2.1]octan-3-yl)-7-(8-ethynyl-7-fluoro-1-naphthyl)-8-fluoro-pyrido[4,3-d]pyrimidin-2-yl]oxymethyl]-1,2,3,5,6,7-hexahydropyrrolizin-3-yl]methyl 4-[6-[1-(2,6-dioxo-3-piperidyl)-3-methyl-2-oxo-benzimidazol-4-yl]hexoxy]piperidine-1-carboxylate]
DC50: < 100 nM

C#Cc1c(F)ccc2cccc(-c3ncc4c(N5CC6CCC(C5)N6)nc(OC[C@@]56CCCN5[C@H](COC(=O)N5CCC(OCCCCCCCc7cccc8c7n(C)c(=O)n8C7CCC(=O)NC7=O)CC5)CC6)nc4c3F)c12 (stereo partly shown) [Compound 59]
DC50: < 100 nM

C#Cc1c(F)ccc2cccc(-c3ncc4c(N5CC6CCC(C5)N6)nc(OC[C@@]56CCCN5[C@H](COC(=O)N5CCC7(CCC(CCc8cccc9c8n(C)c(=O)n9C8CCC(=O)NC8=O)CC7)CC5)CC6)nc4c3F)c12 (stereo partly drawn) [Compound 60, [(3S,8S)-8-[[4-(3,8-Diazabicyclo[3.2.1]octan-3-yl)-7-(8-ethynyl-7-fluoro-1-naphthyl)-8-fluoro-pyrido[4,3-d]pyrimidin-2-yl]oxymethyl]-1,2,3,5,6,7-hexahydropyrrolizin-3-yl]methyl 9-[2-[1-(2,6-dioxo-3-piperidyl)-3-methyl-2-oxo-benzimidazol-4-yl]ethyl]-3-azaspiro[5.5]undecane-3-carboxylate]
DC50: 100 to 300 nM

C#Cc1c(F)ccc2cccc(-c3ncc4c(N5CC6CCC(C5)N6)nc(OC[C@@]56CCCN5[C@H](COC(=O)N5CC7(CC(CCc8cccc9c8n(C)c(=O)n9C8CCC(=O)NC8=O)C7)C5)CC6)nc4c3F)c12 (stereo partly drawn) [Compound 61, [(3S,8S)-8-[[4-(3,8-diazabicyclo[3.2.1]octan-3-yl)-7-(8-ethynyl-7-fluoro-1-naphthyl)-8-fluoro-pyrido[4,3-d]pyrimidin-2-yl]oxymethyl]-1,2,3,5,6,7-hexahydropyrrolizin-3-yl]methyl 6-[2-[1-(2,6-dioxo-3-piperidyl)-3-methyl-2-oxo-benzimidazol-4-yl]ethyl]-2-azaspiro[3.3]heptane-2-carboxylate]
DC50: 100 to 300 nM

C#Cc1c(F)ccc2cccc(-c3ncc4c(N5CC6CCC(C5)N6)nc(OC[C@@]56CCCN5[C@H](COC(=O)N5CCC(OCC7CCN(Cc8cccc9c8n(C)c(=O)n9C8CCC(=O)NC8=O)CC7)CC5)CC6)nc4c3F)c12 (stereo partly drawn) [Compound 62, [(3S,8S)-8-[[4-(3,8-Diazabicyclo[3.2.1]octan-3-yl)-7-(8-ethynyl-7-fluoro-1-naphthyl) 8-fluoro-pyrido[4,3-d]pyrimidin-2-yl]oxymethyl]-1,2,3,5,6,7-hexahydropyrrolizin-3-yl]methyl4-[[1-[[1-(2,6-dioxo-3-piperidyl)-3-methyl-2-oxo-benzimidazol-4-yl]methyl]-4-piperidyl]methoxy]piperidine-1-carboxylate]
DC50: < 100 nM

C#Cc1c(F)ccc2cccc(-c3ncc4c(N5CC6CCC(C5)N6)nc(OC[C@@]56CCCN5[C@H](COC(=O)N5CCC(COC7CN(Cc8cccc9c8n(C)c(=O)n9C8CCC(=O)NC8=O)C7)CC5)CC6)nc4c3F)c12 (stereo partly drawn) [Compound 63, [(3S,8S)-8-[[4-(3,8-diazabicyclo[3.2.1]octan-3-yl)-7-(8-ethynyl-7-fluoro-1-naphthyl)-8-fluoro-pyrido[4,3-d]pyrimidin-2-yl]oxymethyl]-1,2,3,5,6,7-hexahydropyrrolizin-3-yl]methyl4-[[1-[[1-(2,6-dioxo-3-piperidyl)-3-methyl-2-oxo-benzimidazol-4-yl]methyl]azetidin-3-yl]oxymethyl]piperidine-1-carboxylate]
DC50: 100 to 300 nM

C#Cc1c(F)ccc2cccc(-c3ncc4c(N5CC6CCC(C5)N6)nc(OC[C@@]56CCCN5[C@H](COC(=O)N5CCN(C7CCN(Cc8cccc9c8n(C)c(=O)n9C8CCC(=O)NC8=O)CC7)CC5)CC6)nc4c3F)c12 (stereo partly drawn) [Compound 64, [(3S,8S)-8-[[4-(3,8-Diazabicyclo[3.2.1]octan-3-yl)-7-(8-ethynyl-7-fluoro-1-naphthyl)-8-fluoro-pyrido[4,3-d]pyrimidin-2-yl]oxymethyl]-1,2,3,5,6,7-hexahydropyrrolizin-3-yl]methyl 4-[1-[[1-(2,6-dioxo-3-piperidyl)-3-methyl-2-oxo-benzimidazol-4-yl]methyl]-4-piperidyl]piperazine-1-carboxylate]
DC50: < 100 nM

C#Cc1c(F)ccc2cccc(-c3ncc4c(N5CC6CCC(C5)N6)nc(OC[C@@]56CCCN5[C@H](COC(=O)N5CCC(N7CCC(Cc8cccc9c8n(C)c(=O)n9C8CCC(=O)NC8=O)CC7)CC5)CC6)nc4c3F)c12 (stereo partly drawn) [Compound 65, [(3S,8S)-8-[[4-(3,8-Diazabicyclo[3.2.1]octan-3-yl)-7-(8-ethynyl-7-fluoro-1-naphthyl)-8-fluoro-pyrido[4,3-d]pyrimidin-2-yl]oxymethyl]-1,2,3,5,6,7-hexahydropyrrolizin-3-yl]methyl 4-[4-[[1-(2,6-dioxo-3-piperidyl)-3-methyl-2-oxo-benzimidazol-4-yl]methyl]-1-piperidyl]piperidine-1-carboxylate]
DC50: 100 to 300 nM

C#Cc1c(F)ccc2cccc(-c3ncc4c(N5CC6CCC(C5)N6)nc(OC[C@@]56CCCN5[C@H](COC(=O)N5CCC(N7CCC(Oc8cccc9c8n(C)c(=O)n9C8CCC(=O)NC8=O)CC7)CC5)CC6)nc4c3F)c12 (stereo partly shown) [Compound 66]
DC50: < 100 nM

C#Cc1c(F)ccc2cccc(-c3ncc4c(N5CC6CCC(C5)N6)nc(OC[C@@]56CCCN5[C@H](COC(=O)N5CCC7(CC5)CC(CCc5ccc8c(c5)n(C)c(=O)n8C5CCC(=O)NC5=O)C7)CC6)nc4c3F)c12 (stereo partly shown) [Compound 67]
DC50: < 100 nM

C#Cc1c(F)ccc2cccc(-c3ncc4c(N5CC6CCC(C5)N6)nc(OC[C@@]56CCCN5[C@H](COC(=O)N5CCC(COC7CCN(Cc8ccc9c(c8)n(C)c(=O)n9C8CCC(=O)NC8=O)CC7)CC5)CC6)nc4c3F)c12 (stereo partly shown) [Compound 68]
DC50: < 100 nM
